Residues, ends and D or L forms follow the SMILES beside them. *: point of attachment. Cbz = O=C(OCc1ccccc1)*
How the values were obtained:
AR [1] = experiment: Western blot of AR protein levels, VCaP cells; type: cell-based; conditions: TSA or increasing concentrations of CDDO-Imidazole (24 hours), compared with sulforaphane results
HDAC6 [2] = experiment: Western blot of HDAC6 protein levels, LNCaP cells; type: cell-based; conditions: LNCaP cells
acetylated alpha-tubulin = experiment: Western blot of acetylated alpha-tubulin, LNCaP cells; type: cell-based; conditions: LNCaP cells; increasing concentrations of CDDO-Imidazole, 24 hours
Protocol: (§1) The vehicle sample was set to 1.
LNCaP cells were transiently transfected with either a siRNA sequence complementary to the luciferase gene ([…]; SEQ ID NO: 8) or to HDAC6 ([…]; SEQ ID NO: 9) using DharmaFECT 3 transfection reagent for a final concentration of 100 nM (Dharmacon, Lafayette, Colo.). At 48, 72, and 96 hours post-transfection, cells were harvested. Levels of protein expression by Western blot were quantified.

HDAC6 [3] = experiment: Western blot of HDAC6 protein levels, VCaP cells; type: cell-based; conditions: increasing concentrations of CDDO-Imidazole, 24 hours
Text: as §1

acetylated tubulin = experiment: Western blot of acetylated tubulin, VCaP cells; type: cell-based; conditions: increasing concentrations of CDDO-Imidazole, 24 hours
Text: as §1

AR [4] = experiment: Western blot of AR protein levels, LNCaP cells; type: cell-based; conditions: LNCaP cells
Her2Neu protein = conditions: breast cancer cells; through proteasomal degradation; cited from earlier work
AR [5] = experiment: Western blot of AR protein levels, LNCaP cells; type: cell-based
Protocol: Immunoprecipitation and immunoblotting were performed as described (Qian et al., Clin. Cancer Res. 12:634-42, 2006). The following antibodies used in immunoblotting or immunoprecipitations (indicated dilutions are for immunoblotting): AR (1:1000, #06-680 Upstate, Billerica, Mass.); acetylated lysine (#05-515 Upstate, Billerica, Mass.); acetylated tubulin (1:2000, #T6793 Sigma, St. Louis, Mo.); alpha-tubulin (1:10,000, #T6074 Sigma, St. Louis, Mo.); beta-actin (1:5000, #A5441 Sigma, St. Louis, Mo.); ERG-1/2/3, (1:5000, #sc-354X Santa Cruz, Santa Cruz, Calif.); FLAG epitope (#F7425 Sigma, St. Louis, Mo.); GAPDH (1:5000, #sc-32233 Santa Cruz, Santa Cruz, Calif.); HDAC6 (1:1000, #sc-11420 Santa Cruz); HSP90 (1:1000, #SPA-840 Stressgen, Ann Arbor, Mich.); mouse IgG (#sc-2025 Santa Cruz, Santa Cruz, Calif.). The following secondary antibodies were used: ECL-conjugated anti-mouse IgG, (1:5000, #A6782 Sigma, St. Louis, Mo.); ECL-conjugated anti-rabbit IgG (1:3000, #NA934 Amersham, Piscataway, N.J. or 1:10,000, #sc-2004 Santa Cruz, Santa Cruz, Calif.). X-ray exposures were scanned as uncompressed images and bands were quantified by densitometry with Quantity One software (Bio-Rad, Hercules, Calif.). Intensity values were normalized to those of the endogenous controls. The vehicle sample was set to 1. Enrichment was calculated as: (intensity IP/intensity input)/(intensity IgG/intensity input) or intensity IP/input (FIG. 1B).
LNCaP cells were treated with sulforaphane in a dose-response (5 μM to 20 μM) and time-course (12 and 24 hours) manner to investigate the effect of HDAC6 inhibition on AR protein levels. Western blotting was performed as described in Example 1. […]

AR [6] = experiment: Real-time PCR of AR gene expression, LNCaP cells; type: cell-based; conditions: increasing doses of sulforaphane, or TSA, vehicle set to 1
Text: (§2) All samples were run in triplicate. The vehicle-treated sample was set to 1.

AR [7] = experiment: Real-time PCR of AR gene expression, VCaP cells; type: cell-based; conditions: 24 hours, increasing doses of sulforaphane, or TSA, vehicle set to 1
Text: as §2

In the case of `CC1(C)CC[C@]2(C(=O)n3ccnc3)CC[C@]3(C)[C@H](C(=O)C=C4[C@@]5(C)C=C(C#N)C(=O)C(C)(C)[C@@H]5CC[C@]43C)[C@@H]2C1` [CDDO-Imidazole], the AR protein levels (AR [1]) is reported as “reduced AR protein levels”, the HDAC6 protein (HDAC6 [2]; increasing concentrations of CDDO-Imidazole, 24 hours) is reported as “depletes HDAC6 in a dose-dependent manner” and the tubulin acetylation (acetylated alpha-tubulin) is reported as “increased tubulin acetylation”. For the same compound, the HDAC6 protein (HDAC6 [3]) was “depletes HDAC6 in a dose-dependent manner”, the tubulin acetylation (acetylated tubulin) was “increased tubulin acetylation” and the AR protein levels (AR [4]; TSA or increasing concentrations of CDDO-Imidazole (24 hours), compared with sulforaphane results) was “reduced AR protein levels”. For the same compound, the Her2Neu protein levels (Her2Neu protein) was “deplete Her2Neu protein levels”.

With `CC(/C=C/C(=O)NO)=C\[C@@H](C)C(=O)c1ccc(N(C)C)cc1` [TSA, trichostatin A] the “AR steady state level with simultaneous MG132 treatment” value (AR [5]; 24 hours, sulforaphane 20 μM or 300 nM TSA with 10 μM MG132) was “restored the AR steady state level close to that seen in the vehicle-treated control”, the “AR protein in the absence of MG132” value (AR [5]; 24 hours, sulforaphane 20 μM or 300 nM TSA, versus vehicle-treated cells) was “dramatic reductions” and the “AR protein levels at 24 hours” value (AR [5]; sulforaphane 15 μM and 20 μM, TSA) was “recovered”. For the same compound, the AR transcripts (AR [6]) was “suppressed AR transcripts”, the AR transcripts (AR [7]) was “suppressed AR transcripts” and the HDAC6 protein levels (HDAC6 [2]; 16 hours, 300 nM TSA without or with 20 μM MG132) was “minimal effects”.

In the case of `CC(C)C[C@@H](C=O)NC(=O)[C@H](CC(C)C)NC(=O)[C@H](CC(C)C)NC(=O)OCc1ccccc1` [MG132] (Cbz-Leu-Leu-Leu-aldehyde), the “AR protein levels, MG132 alone” value (AR [4]; 24 hours, 10 μM MG132 versus vehicle) is reported as “did not change AR protein levels”.
